Columns and labels:
[1] = target: human ether-a-go-go related gene (hERG) channel (Homo sapiens (Human), UniProt Q12809); assay: hERG test (whole cell patch clamp, IKr); assay type: cell-based; settings: CHO cells expressing hERG channel, IKr tail peak current
Excerpt: For the purpose of assessing risk of an electrocardiogram QT interval prolongation of the compound of the present invention, effects of the compound of the present invention on delayed rectifier K+ current (IKr), which plays an important role in the ventricular repolarization process, was studied using CHO cells expressing human ether-a-go-go related gene (hERG) channel.
After a cell was retained at a membrane potential of −80 mV by whole cell patch clamp method using an automated patch clamp system (QPatch: Sophion Bioscience A/S) and gave a leak potential of −50 mV, IKr induced by depolarization pulse stimulation at +20 mV for 2 seconds and, further, repolarization pulse stimulation at −50 mV for 2 seconds, was recorded. […] From the recording IKr, an absolute value of the tail peak current was measured based on the current value at the resting membrane potential using analysis software (Falster Patch; Sophion Bioscience A/S). Further, the % inhibition relative to the tail peak current before application of the compound of the present invention was calculated, and compared with the vehicle-applied group (0.1% dimethyl sulfoxide solution) to assess influence of the compound of the present invention on IKr.

[2] = Solubility test (1% DMSO, artificial intestinal juice pH 6.8); assay type: physicochemical; settings: artificial intestinal juice pH 6.8 with 1% DMSO, 25 °C, fassgf or other biorelevant, kinetic from dmso stock, artificial intestinal juice pH 6.8, 25 degrees Celsius, read-out: Solubulity
[3] = Metabolism stability test, pooled human hepatic microsomes; assay type: in vitro ADME; settings: remaining rate, human liver microsomes, 30 minutes, compound concentration 0.5 μmol/L
Method: Using commercially available pooled human hepatic microsomes, a test compound is reacted for a constant time, a remaining rate is calculated by comparing a reacted sample and an unreacted sample, thereby, a degree of metabolism in liver is assessed.
A reaction was performed (oxidative reaction) at 37° C. for 0 minute or 30 minutes in the presence of 1 mmol/L NADPH in 0.2 mL of a buffer (50 mmol/L tris-HCl pH 7.4, 150 mmol/L potassium chloride, 10 mmol/L magnesium chloride) containing 0.5 mg protein/mL of human liver microsomes. After the reaction, 50 μL of the reaction solution was added to 100 μL of a methanol/acetonitrile=1/1 (v/v) mixed and centrifuged at 3000 rpm for 15 minutes. The test compound in the supernatant was quantified by LC/MS/MS, and a remaining amount of the test compound after the reaction was calculated, letting a compound amount at 0 minute reaction time to be 100%.
The remaining rate at the compound concentration 0.5 μmol/L are shown below.

Chain of human ether-a-go-go related gene (hERG) channel (Q12809 whole entry): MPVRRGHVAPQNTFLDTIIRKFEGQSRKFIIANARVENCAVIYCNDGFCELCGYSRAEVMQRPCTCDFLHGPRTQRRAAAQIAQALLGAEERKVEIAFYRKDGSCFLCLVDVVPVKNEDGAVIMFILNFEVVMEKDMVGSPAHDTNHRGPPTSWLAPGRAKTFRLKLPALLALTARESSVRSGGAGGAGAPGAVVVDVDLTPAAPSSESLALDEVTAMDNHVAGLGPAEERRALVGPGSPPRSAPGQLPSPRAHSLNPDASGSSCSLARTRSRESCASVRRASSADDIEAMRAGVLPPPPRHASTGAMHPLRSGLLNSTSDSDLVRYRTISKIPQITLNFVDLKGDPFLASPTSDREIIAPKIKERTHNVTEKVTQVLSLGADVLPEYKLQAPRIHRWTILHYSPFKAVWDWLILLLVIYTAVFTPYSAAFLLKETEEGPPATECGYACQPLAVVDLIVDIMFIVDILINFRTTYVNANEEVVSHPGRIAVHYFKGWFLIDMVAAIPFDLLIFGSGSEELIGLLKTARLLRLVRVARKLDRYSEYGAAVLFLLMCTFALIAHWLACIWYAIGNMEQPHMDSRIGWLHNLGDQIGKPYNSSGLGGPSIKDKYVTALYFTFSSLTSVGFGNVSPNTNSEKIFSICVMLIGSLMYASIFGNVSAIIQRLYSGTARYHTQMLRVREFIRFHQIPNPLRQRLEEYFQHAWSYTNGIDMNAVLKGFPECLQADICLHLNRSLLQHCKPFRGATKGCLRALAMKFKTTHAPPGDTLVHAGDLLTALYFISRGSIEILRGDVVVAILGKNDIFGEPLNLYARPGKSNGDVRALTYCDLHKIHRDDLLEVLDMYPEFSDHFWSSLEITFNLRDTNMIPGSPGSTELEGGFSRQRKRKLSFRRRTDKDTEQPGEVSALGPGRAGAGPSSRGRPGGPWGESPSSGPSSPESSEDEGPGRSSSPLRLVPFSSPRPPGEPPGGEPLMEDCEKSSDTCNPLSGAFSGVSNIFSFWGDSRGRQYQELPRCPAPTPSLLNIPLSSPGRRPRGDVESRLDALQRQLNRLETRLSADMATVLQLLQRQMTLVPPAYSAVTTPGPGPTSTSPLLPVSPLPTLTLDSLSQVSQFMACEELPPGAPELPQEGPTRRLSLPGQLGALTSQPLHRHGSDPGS

solubility at 18 h [2] | Metabolism Stability [3] | Compound | hERG Inhibition [1]
– | – | CC(C)(Cn1c(=O)[nH]/c(=N\c2ccc(Oc3ccc(Cl)cn3)cc2)n(Cc2ccc(Cl)cc2)c1=O)C(=O)O [Compound I-006] | 5.3%
> 50 µM | 99% | C[C@@H](C(=O)O)[C@H](C)n1c(=O)[nH]/c(=N\c2ccc(Oc3ccc(F)cn3)c(F)c2)n(Cc2ccc(Cl)cc2)c1=O [Compound I-002] | 7.3%

From patent US9732060B2, “Aminotriazine derivative and pharmaceutical composition comprising the same” (Shionogi & Co., Ltd., priority 2013, dated 2017)
